Test results from patent US9493430B2, “Biaryl- or heterocyclic biaryl-substituted cyclohexene derivative compounds as CETP inhibitors” (CHONG KUN DANG PHARMACEUTICAL CORP., priority 2013, dated 2016).
pIC50: −log10 of the molar value.

Assays:
golden Syrian hamsters = experiment: Test for anti-hyperlipidemic effect in hamsters (in vivo); details: Mesocricetus auratus, po, 3 mg/kg orally for 5 days, blood 4 hours after final administration, vs control; for inhibition in vivo at 3 mg/kg: read-out: Decrease in LDL-c (%); for change in vivo at 3 mg/kg: read-out: Increase in HDL-c (%)
Description: Test for Anti-Hyperlipidemic Effect in Hamsters (In Vivo)
In this test, 8-week-old male golden Syrian hamsters were used. The breeding room was maintained at constant temperature and constant humidity and a 12-hr light/12-hr dark cycle. The animals were allowed access to feed and water ad libitum.
2. Anti-Hyperlipidemic Test in Hamsters
The test animals were acclimated for 1 week before use in the test. The test animals were divided according to body weight into several groups, each consisting of 5-8 animals, and were then administered orally with a dose of 3 mg/kg. A solvent control and a CETP inhibitor were dissolved in imwitor 742: tween 80 (1:1) and administered orally for 5 days, and at 4 hours after the final administration, blood was collected from the heart. The collected blood was centrifuged at 3000 rpm for 15 minutes, and the separated serum was measured for HDL-Cholesterol (Biosystem) and LDL-Cholesterol (Biosystem) using a biochemical analysis instrument (ILab 300 plus, Instrumentation Laboratory).
(§1) 3. Statistical Processing
All test results were expressed as Mean±SEM, and to evaluate the effect of each test group, each test group was compared with the control group using one-way ANOVA test (Dunnett's test, p<0.001).

CETP = CETP (Homo sapiens (Human), UniProt P11597); experiment: Test for inhibition of cholesteryl ester transfer (in vitro); type: biochemical; details: human plasma as CETP source, LDL from healthy persons as acceptor, rHDL-agarose donor, 37° C.
Description: Test for Inhibition of Cholesteryl Ester Transfer (In Vitro)
1. Construction of Cholesteryl Ester Donor
To construct a cholesteryl ester donor to be used in the test, radiolabeled recombinant HDL containing […] (GE healthcare, TRK886, 3.5 μCi/mg of apoA-1) and apoA-1 was synthesized. Then, rHDL-agarose having the recombinant HDL immobilized thereon by CNBr-activated Sepharose 4B (Amersham Biosciences, Sweden) resin was used in the test.
2. Cholesteryl Ester Transfer Test
As a protein source for cholesteryl ester transfer, plasma from healthy persons was used, and as a cholesteryl ester receptor, LDL from healthy persons was used. Samples were treated with each test compound to final concentrations of 16, 80, 400, 2000 and 10000 nM and analyzed in duplicate. For the cholesteryl ester transfer test, 20 μl of plasma, 50 μl of LDL (0.25 mg/ml) and 50 μl of rHDL-agarose (0.25 mg/ml) were added, and a solution containing a test compound was added, followed by reaction at 37° C. Then, centrifugation was performed at 4° C. for 3 minutes to stop the reaction, and 150 μl of the supernatant was taken and transferred to a 96-well plate for radioactivity measurement, and the radioactivity of the plate was measured with a beta-ray detector.
as §1
The ratio of [^3H]-cholesteryl oleate from HDL to LDL was calculated and used as a result value, and from the result value, IC50 value was calculated using GraphPad Prism 5.0.

CETP, sequence (P11597 18-493): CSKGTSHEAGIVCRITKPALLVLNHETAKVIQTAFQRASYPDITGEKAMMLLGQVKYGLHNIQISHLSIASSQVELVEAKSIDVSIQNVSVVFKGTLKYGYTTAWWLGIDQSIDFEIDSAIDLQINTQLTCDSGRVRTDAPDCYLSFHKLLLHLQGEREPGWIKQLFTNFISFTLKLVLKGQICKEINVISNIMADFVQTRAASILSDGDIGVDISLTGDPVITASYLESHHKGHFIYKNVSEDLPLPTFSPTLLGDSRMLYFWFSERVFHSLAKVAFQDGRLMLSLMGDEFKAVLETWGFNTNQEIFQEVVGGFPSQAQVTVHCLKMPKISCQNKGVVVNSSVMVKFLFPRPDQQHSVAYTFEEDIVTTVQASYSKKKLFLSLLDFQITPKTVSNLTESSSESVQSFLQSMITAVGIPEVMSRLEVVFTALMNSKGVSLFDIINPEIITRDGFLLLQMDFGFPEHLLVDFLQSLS

SMILES | inhibition in vivo at 3 mg/kg (golden Syrian hamsters) [%] | change in vivo at 3 mg/kg (golden Syrian hamsters) [%] | pIC50 (CETP)
COc1cc(F)c(-c2ccc(C(=O)O)cc2F)cc1C1=C(CN2C(=O)O[C@H](c3cc(C(F)(F)F)cc(C(F)(F)F)c3)[C@@H]2C)CC(C)(C)CC1 [Compound 661, 5′-(2-(((4S,5R)-5-(3,5-bis(trifluoromethyl)phenyl)-4-methyl-2-oxooxazolidin-3-yl)methyl)-4,4-dimethylcyclohex-1-enyl)-2,2′-difluoro-4′-methoxybiphenyl-4-carboxylic acid] | 20 | 53 | 8.60
COc1cc(F)c(-c2ccc(C(=O)O)cc2C)cc1C1=C(CN2C(=O)O[C@H](c3cc(C(F)(F)F)cc(C(F)(F)F)c3)[C@@H]2C)CC(C)(C)CC1 [Compound 574, 5′-(2-(((4S,5R)-5-(3,5-bis(trifluoromethyl)phenyl)-4-methyl-2-oxooxazolidin-3-yl)methyl)-4,4-dimethylcyclohex-1-enyl)-2′-fluoro-4′-methoxy-2-methylbiphenyl-4-carboxylic acid] | 36 | 41 | 8.41
COc1ncc(-c2ccc(C(=O)O)cc2C)cc1C1=C(CN2C(=O)O[C@H](c3cc(C(F)(F)F)cc(C(F)(F)F)c3)[C@@H]2C)CC(C)(C)CC1 [Compound 557, 4-(3-(2-(((4S,5R)-5-(3,5-bis(trifluoromethyl)phenyl)-4-methyl-2-oxooxazolidin-3-yl)methyl)-4,4-dimethylcyclohex-1-enyl)-2-methoxypyridin-5-yl)-3-methylbenzoic acid] | 39 | 77 | 8.27
COc1ccc(-c2c(F)cc(C(=O)O)cc2F)cc1C1=C(CN2C(=O)O[C@H](c3cc(C(F)(F)F)cc(C(F)(F)F)c3)[C@@H]2C)CC(C)(C)CC1 [Compound 593, 3′-(2-(((4S,5R)-5-(3,5-bis(trifluoromethyl)phenyl)-4-methyl-2-oxooxazolidin-3-yl)methyl)-4,4-dimethylcyclohex-1-enyl)-2,6-difluoro-4′-methoxybiphenyl-4-carboxylic acid] | 29 | 61 | 8.82
COc1cc(C(F)(F)F)c(-c2ccc(C(=O)O)cc2)cc1C1=C(CN2C(=O)O[C@H](c3cc(C(F)(F)F)cc(C(F)(F)F)c3)[C@@H]2C)CC(C)(C)CC1 [Compound 612, 5′-(2-(((4S,5R)-5-(3,5-bis(trifluoromethyl)phenyl)-4-methyl-2-oxooxazolidin-3-yl)methyl)-4,4-dimethylcyclohex-1-enyl)-4′-methoxy-2′-(trifluoromethyl)biphenyl-4-carboxylic acid] |  |  | 8.16
COc1cc(C(F)(F)F)c(-c2ccc(C(=O)O)c(F)c2)cc1C1=C(CN2C(=O)O[C@H](c3cc(C(F)(F)F)cc(C(F)(F)F)c3)[C@@H]2C)CC(C)(C)CC1 [Compound 614, 5′-(2-(((4S,5R)-5-(3,5-bis(trifluoromethyl)phenyl)-4-methyl-2-oxooxazolidin-3-yl)methyl)-4,4-dimethylcyclohex-1-enyl)-3-fluoro-4′-methoxy-2′-(trifluoromethyl)biphenyl-4-carboxylic acid] |  |  | 7.57
Cc1cc(C(=O)O)ccc1-c1cc(C2=C(CN3C(=O)O[C@H](c4cc(C(F)(F)F)cc(C(F)(F)F)c4)[C@@H]3C)CC(C)(C)CC2)ccc1C [Compound 677, 5′-(2-(((4S,5R)-5-(3,5-bis(trifluoromethyl)phenyl)-4-methyl-2-oxooxazolidin-3-yl)methyl)-4,4-dimethylcyclohex-1-enyl)-2,2′-dimethylbiphenyl-4-carboxylic acid] |  |  | 7.80
COc1cc(F)c(-c2ccc(C(=O)O)cc2)cc1C1=C(CN2C(=O)O[C@H](c3cc(C(F)(F)F)cc(C(F)(F)F)c3)[C@@H]2C)CC(C)(C)CC1 [Compound 575, 5′-(2-(((4S,5R)-5-(3,5-bis(trifluoromethyl)phenyl)-4-methyl-2-oxooxazolidin-3-yl)methyl)-4,4-dimethylcyclohex-1-enyl)-2′-fluoro-4′-methoxybiphenyl-4-carboxylic acid] |  |  | 7.84
